Reference: article PMC8972069 (Nuclear medicine and biology, 2020)

Tests used:
[1] = biological target: Human recombinant S1PR3 lysophospholipid receptor membrane (Homo sapiens, UniProt Q99500); assay: [^32P]S1P competitive binding assay, S1PR3
[2] = biological target: Human recombinant S1PR1 lysophospholipid receptor membrane (Homo sapiens, UniProt P21453); assay: [^32P]S1P competitive binding assay, S1PR1
[3] = biological target: T1, human recombinant S1PR4 lysophospholipid receptor membrane (Homo sapiens, UniProt O95977); assay: [^32P]S1P competitive binding assay, S1PR4
T1 sequence (O95977 1-384): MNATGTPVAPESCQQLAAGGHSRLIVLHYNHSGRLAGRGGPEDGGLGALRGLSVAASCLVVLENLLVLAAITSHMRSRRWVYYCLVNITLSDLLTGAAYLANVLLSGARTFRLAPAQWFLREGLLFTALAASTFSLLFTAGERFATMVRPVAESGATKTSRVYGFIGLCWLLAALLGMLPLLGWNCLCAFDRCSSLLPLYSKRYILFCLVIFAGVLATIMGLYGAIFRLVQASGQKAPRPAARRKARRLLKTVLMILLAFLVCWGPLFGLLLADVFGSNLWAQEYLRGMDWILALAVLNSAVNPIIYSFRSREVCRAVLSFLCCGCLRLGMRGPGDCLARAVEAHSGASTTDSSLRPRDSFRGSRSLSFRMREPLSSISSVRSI

[4] = biological target: Human recombinant S1PR5 lysophospholipid receptor membrane (Homo sapiens, UniProt Q9H228); assay: [^32P]S1P competitive binding assay, S1PR5
Chain of Human recombinant S1PR5 lysophospholipid receptor membrane (Q9H228 whole entry): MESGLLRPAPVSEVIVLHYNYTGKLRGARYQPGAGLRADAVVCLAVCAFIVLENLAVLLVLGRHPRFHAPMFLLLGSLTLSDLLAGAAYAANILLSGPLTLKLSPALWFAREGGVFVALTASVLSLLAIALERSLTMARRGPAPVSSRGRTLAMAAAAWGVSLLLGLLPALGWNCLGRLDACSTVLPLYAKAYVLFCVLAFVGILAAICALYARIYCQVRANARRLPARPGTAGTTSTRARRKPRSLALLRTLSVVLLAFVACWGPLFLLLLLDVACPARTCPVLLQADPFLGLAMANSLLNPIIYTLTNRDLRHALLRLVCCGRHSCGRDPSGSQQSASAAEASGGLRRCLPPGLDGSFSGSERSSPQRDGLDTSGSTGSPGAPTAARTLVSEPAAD

Chain of Human recombinant S1PR1 lysophospholipid receptor membrane (P21453 whole entry): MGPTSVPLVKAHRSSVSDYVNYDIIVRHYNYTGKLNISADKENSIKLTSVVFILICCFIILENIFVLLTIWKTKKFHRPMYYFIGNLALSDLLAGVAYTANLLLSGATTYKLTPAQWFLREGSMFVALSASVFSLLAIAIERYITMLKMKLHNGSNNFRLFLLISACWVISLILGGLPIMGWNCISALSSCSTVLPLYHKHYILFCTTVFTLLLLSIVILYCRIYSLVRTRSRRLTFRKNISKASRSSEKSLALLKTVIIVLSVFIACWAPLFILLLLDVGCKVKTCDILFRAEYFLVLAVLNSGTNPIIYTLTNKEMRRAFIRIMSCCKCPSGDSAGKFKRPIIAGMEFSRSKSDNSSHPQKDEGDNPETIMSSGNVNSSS
Chain of Human recombinant S1PR3 lysophospholipid receptor membrane (Q99500 whole entry): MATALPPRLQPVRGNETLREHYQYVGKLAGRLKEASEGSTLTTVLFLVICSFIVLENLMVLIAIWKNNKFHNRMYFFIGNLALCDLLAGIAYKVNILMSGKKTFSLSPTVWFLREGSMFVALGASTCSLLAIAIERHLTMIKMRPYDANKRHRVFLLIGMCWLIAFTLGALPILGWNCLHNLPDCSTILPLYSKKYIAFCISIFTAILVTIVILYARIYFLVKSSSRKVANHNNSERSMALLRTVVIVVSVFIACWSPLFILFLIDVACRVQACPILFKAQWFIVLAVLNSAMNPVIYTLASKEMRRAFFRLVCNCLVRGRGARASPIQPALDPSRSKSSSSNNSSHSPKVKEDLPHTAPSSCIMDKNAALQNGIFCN

IC50 [1]: > 1000 nM | IC50 [2]: > 1000 nM | IC50 [3]: > 1000 nM | IC50 [4]: > 1000 nM
SMILES: COc1ccc(NC(=O)Cn2c(=O)c3ccccc3n(CC(=O)Nc3cc(I)c(OC)cc3OC)c2=O)cc1 [TZ6544, N-(5-iodo-2,4-dimethoxyphenyl)-2-(3-(2-((4-methoxyphenyl)amino)-2-oxoethyl)-2,4-dioxo-3,4-dihydroquinazolin-1(2H)-yl)acetamide]
